Four molecules from patent publication US9155761B2, “Method for the treatment of cancer” (UNIVERSITY COLLEGE CORK, NATIONAL UNIVERSITY OF IRELAND, …, priority 2009, dated 2015) can be followed below.

The subject of data set [1] is KYSE450. Put plainly: Evaluation of cell death morphology by light microscopy. Format: cell-based, human. As to the method:
(§1) Morphological features of cells treated with 5-fluorouracil (5-FU)/cisplatin, without and with 3-MA, LY294002, Bafilomycin, Lithium chloride, rapamycin or HA14-I were examined by light microscopy. Morphologies of treated cells were examined 24 and 48 hours post treatment, treatment times are referred to in figure legends. Aliquots of vehicle control and drug treated cells were cytospun onto glass slides and stained with Rapi-Diff (Braidwood laboratories, UK). The extent of apoptotic and non-apoptotic cell death was determined by counting the cells in at least three fields of view per slide, with an average of ˜100 cells per field. Apoptotic cell death is characterized by the presence of two or more of the following morphological features: cell shrinkage, chromatin condensation, DNA degradation and fragmentation into ‘apoptotic bodies’, within an intact plasma membrane. Autophagic cell death was identified by clear elevation of cytoplasmic vesicles, loss of cytoplasmic material, pyknosis of the nuclear material and an intact nuclear membrane. Cytospin images are representative of at least three independent experiments.

The test system of data set [2] is OE21. On the procedure: as §1
Data set [3] has as its system OE21. The data set is described as follows: MTT viability and recovery assay. It is filed as cell-based, human. On the procedure:
(§2) Viability of esophageal cells was assessed using the MTT reduction assay. Cells are seeded at 2×10^4 (OE33/OE19) and 1×10^4 (OE21/KYSE450) cells per cm^2, treated for 48-96 hours and incubated for an additional 60 minutes at 37° C. in 0.5 mg/ml MTT dye. Viable, metabolizing cells reduce MTT dye, producing a dark formazan product, with absorbance read at 562 nm, reference wavelength 620 nm. To assess recovery, at 48 hours post treatment, in replicate plates (identical seeding & treatment times), all drugs were removed, culture medium was replaced, and these cells were cultured for a further 48-96 hours, to monitor their ability to recover and MTT assay was repeated.
(§3) In analysis of MTT data, values are presented as the Mean absorbance+/−Standard Error of the Mean (S.E.M) for four independent experiments. Statistical analysis was performed with paired Student's t-test. Values of p<0.05 were considered statistically significant. Asterisks indicate the level of significance.

A further data set has as its system LC3 in OE33 cells. Put plainly: LC3 / GFP-LC3 processing and distribution (Western blot, fluorescence microscopy). Format: cell-based, human. As to conditions: 10 nM, 24 and 48 hours post treatment. As to the method: (§4) Total cellular protein extracts were prepared by scraping the cells into modified RIPA buffer (50 mM Tris HCl (pH 7.4), 150 mM NaCl, 0.25% Sodium deoxycholate, 1% Igepal, protease inhibitors 1 mM EDTA, 1× Pefabloc, 1× protease inhibitor cocktail, 1 mM Na3VO4, 1 mM NaF). All protein samples were separated by SDS-PAGE (10/12%) and electrophoretically transferred onto nitrocellulose membrane. All primary antibodies were incubated overnight at 4° C.: anti-phospho mTOR (Ser 2448) and anti-p70^S6K (Thr 389) (Cell Signaling Technologies, UK), anti-Beclin-1 (BD Biosciences, UK) and anti-LC3 (Medical & Biological Laboratories, Japan). The membranes were incubated with the relevant horseradish peroxidase conjugated secondary antibodies (DakoCytomation, Dublin) and detected by chemiluminescence (ECL Amersham, UK).
(§5) To visualize and quantify the formation of autophagic vesicles, the green fluorescent protein (GFP)-LC3 (pEGFP-LC3) expression vector, kindly supplied by Dr. T. Yoshimori (National Institute of Genetics, Japan) was used. Cells were transiently transfected with the Amaxa electroporation system according to the supplier's protocol. Twenty-four hours post transfection, cells were treated with 5-FU and/or Cisplatin, fixed in 4% paraformaldehyde in PBS and transferred onto slides using a non-fluorescent fixative for analysis by fluorescence microscopy. Alternatively, Western Blot analysis was used to assess the expression and processing of LC3. […] The membrane sequestered, lipid-conjugated form of LC3-II remains with the autophagosome membrane after the vesicle has formed, and levels of both isoform are detected by Western Blot. Transfection efficiency was consistent for a given cell line, OE33 and KYSE450 cell lines (˜60-70%) compared to OE19 and OE21 cell lines (˜30%).

A further data set concerns LC3 in OE19 cells. Described as above. Format: cell-based, human. As to conditions: 10 nM bafilomycinA1, 24 and 48 hours. On the procedure:
as §4, §5

The subject of the next data set is LC3 in KYSE450 cells. Described as above. Format: cell-based, human. As to conditions: 10 nM, 24 and 48 hours post treatment. On the procedure:
as §4, §5

Data set [4] deals with KYSE450. It is filed as cell-based, human. On the procedure: as §2, §3

Like-named read-outs stand apart in the source and are kept apart here. Residues, ends and D or L forms follow the SMILES beside them. *: point of attachment. Cbz = O=C(OCc1ccccc1)*; CH2F = FC*

Regarding `Cn1cnc(N)c2ncnc1-2` [3-MA, 3-Methyladenine], the morphology result in the data set with KYSE450 [1] (3-MA (10.0 μM) without and with 5-FU (50 μM), 48 hours) was “did not significantly affect morphology”; in the data set on OE21 [2] (3-MA without and with 5-FU (30 μM), 48 hours), “did not significantly affect morphology”.
As for `CO/C1=C\C(C)=C\[C@@H](C)[C@@H](O)[C@@H](C)C/C(C)=C/C=C/[C@H](OC)[C@@H]([C@@H](C)[C@@H](O)[C@H](C)[C@@]2(O)C[C@@H](O)[C@H](C)[C@@H](C(C)C)O2)OC1=O` [Bafilomycin, Bafilomycin A1], the morphology result in the data set on KYSE450 [1] (Bafilomycin 10.0 nM alone or with 5-FU (50 μM)) and in the data set with OE21 [2] (Bafilomycin 1.0 nM alone or with 5-FU (30 μM)) was “significant levels of vesicular accumulation” throughout. Moreover, the “cell death (MTT)” value in the data set on OE21 [3] is “induced significant cell death”. Further, the “levels of endogenous LC3 (Western blot)” value in the data set with LC3 in OE33 cells and in the data set on LC3 in KYSE450 cells was “induced an accumulation in the levels of endogenous LC3” in each case. In addition, the “GFP-LC3 distribution (fluorescence microscopy)” value in the data set with LC3 in OE19 cells was “accumulation of GFP-LC3 tagged autophagosomes”. Moreover, the “cytotoxicity (MTT)” value in the data set with KYSE450 [4] (Bafilomycin 100 nM) is “cytotoxic alone”. In the data set with KYSE450 [4] (Bafilomycin 10-100 nM), the “viability (MTT)” value is on record as “reduction in MTT”.
Regarding `CCOC(=O)C1=C(N)Oc2ccc(Br)cc2C1C(C#N)C(=O)OCC` (centres unmarked) [HA14-1], the morphology result with KYSE450 [1] (HA14-1 (5 μM) and/or 5-FU (50 μM), 24 hours) is “rarely causes apoptosis”; in the data set on KYSE450 [1] (HA14-1 (5 μM) and/or 5-FU (50 μM), 24 hours, listed as HA14-I) it was “the induction of apoptosis is observed, but at very low levels”; in the data set with KYSE450 [1] (HA14-1 (10 μM) without and with 5-FU (50 μM), 24 hours), “the induction of apoptosis is apparent, but again at low levels”; in the data set on KYSE450 [1] (HA14-1 (20 μM), 24 hours), “rarely causes apoptosis”; in the data set with KYSE450 [1] (HA14-1 (20 μM), 24 hours, listed as HA14-I), “the induction of apoptosis is apparent, but again at low levels”; in the data set with KYSE450 [1] (HA14-1 (30 μM), 24 hours), “apoptotic cells are visible”. Also, the morphology entry in the data set on KYSE450 [1] (HA14-1 (30 μM), 24 hours, listed as HA14-I) was “induced clear levels of apoptotic cell death”; in the data set on KYSE450 [1] (HA14-1 (30 μM), 48 hours) it was “apoptotic cells are visible”; in the data set on KYSE450 [1] (HA14-1 (30 μM), 48 hours, listed as HA14-I) it was “induced clear levels of apoptotic cell death”.
In the case of `COC(=O)C[C@H](NC(=O)[C@H](C)NC(=O)[C@@H](NC(=O)OCc1ccccc1)C(C)C)C(=O)CF` [zVAD-fmk] (Cbz-Val-Ala-Asp(OMe)-CH2F), the “inhibition of apoptosis induced by 5-FU” value in the data set with OE21 [2] (zVAD-fmk (25 μM) for 2 hours prior to 5-FU treatment) is on record as “completely inhibited”.
